Each molecule was assayed on AMP-activated protein kinase (AMPK) (assay: p-AMPK expression level in L6 cell line by Western blot). Details: L6 cells, 2 hours compound treatment.
Assay type: cell-based
Method: Evaluation of p-AMPK and p-ACC expression level in L6 cell line by Western-Blot
This method evaluates the changes of AMP-activated protein kinase (AMPK) and ACC (acetyl-CoA carboxylase) activity by small molecular modulators through detecting the level of p-AMPK and p-ACC proteins in L6 cells using Western blot.
L6 cells are maintained in DMEM medium supplemented with 10% FBS in 10-cm dishes. Prior to compounds treatment, L6 cells are seeded in 12-well-plates at concentration of 3×10^4 cells per well. After 24 hours of incubation in 12-well plates, L6 cells are differentiated by replacing the 10% FBS-DMEM medium with 2% FBS-DMEM. Differentiation usually takes 5 days, during which the culture medium is changed every 2 days.
The compound concentrations typically range from 32 μM to 0.5 μM with 2-fold dilution in 2 ml DMEM and 7 doses. The final DMSO concentration is 0.4%. Berberine is used as a positive control at concentration of 16 μM. Before compound treatment, starve L6 cells for 2 hours by replacing the medium with DMEM, and then gently aspirate the media from each well. Add the compounds into the plates and incubate at 37 degree 5% CO2 for 2 hours.
Prepare lysis buffer (RIPA buffer with protease-inhibitors and phosphorate-inhibitors) and place it on ice. After two hour's compound treatment, aspirate the medium from 12-well plates, add 70 ul lysis buffer to each well and keep the plates on ice for 5 min. Then scrape the cell lysate off the plates and transfer it to 1.5 ml eppendorf tubes. Keep the tube on ice for more 10 min, centrifugate the lysate at 13000 rpm, 4 degrees for 15 min and transfer the supernatant to clean tubes.
Determine protein concentration for each sample using Quickstart Bradford protein quantitation kit. Mix 20 ug protein sample with 4 times loading buffer, heat them at 100° C. for 5 min, store the sample in −80° C. or perform Western blot assay directly. For Western blot assay, load 20 ug samples and 10 ul Pre-stained Protein Maker into 4-12% SDS-PAGE gradient gel. Run the samples at 100 V in the stacking gel and at 120 V in resolving gel until the Bromophenol dye reaches the bottom. Transfer the electrophoresed proteins to a PVDF membrane using Bio-Rad's Transblot for 120 min at 300 mA. Following the completion of transfer, the membrane is blocked with 5% non-fat milk for 2 hours at room temperature before incubated with primary antibody (p-AMPK and p-ACC) at 4° C. overnight. On the next day wash the membrane twice with TBST, add secondary antibody and incubate for 1 hour at room temperature. Wash the membrane twice with TBST. Develop p-AMPK and p-ACC protein expression level on the film in dark room with Amersham ECL plus kit. The bands of each sample are quantitated by Bio-Rad system, The AC1.3 value is analyzed using Prism 5.0.

| Compound | Activity AC1.3 (AMPKp) [µM] |
| --- | --- |
| CS(=O)(=O)NC(=O)c1ccc2c(c1)C1(CCCC1)CC(c1cccc(N3CCOCC3)c1)N2 (centres unmarked) [Example 5, N-(methylsulfonyl)-2′-(3-morpholinophenyl)-2′,3′-dihydro-1′H-spiro[cyclopentane-1,4′-quinoline]-6′-carboxamide] | 9 |
| CC1(C)CC(c2cc(N3CCOCC3)ccc2Cl)Nc2ccc(C(=O)NS(=O)(=O)C3CC3)cc21 (centres unmarked) [Example 25, Cyclopropanesulfonic acid [2-(2-chloro-5-morpholin-4-yl-phenyl)-4,4-dimethyl-1,2,3,4-tetrahydro-quinoline-6-carbonyl]-amide] | 0.21 |
| Cc1ccc(N2CCOC2=O)cc1C1CC(C)(C)c2cc(C(=O)NS(C)(=O)=O)ccc2N1 (centres unmarked) [Example 27, N-{4,4-dimethyl-2-[2-methyl-5-(2-oxo-oxazolidin-3-yl)-phenyl]-1,2,3,4-tetrahydro-quinoline-6-carbonyl}-methanesulfonamide] | 0.01 |
| Cc1ccc(N2CCOC2=O)cc1C1CC(C)(C)c2cc(C(=O)NS(=O)(=O)C3CC3)ccc2N1 (centres unmarked) [Example 28, Cyclopropanesulfonic acid {4,4-dimethyl-2-[2-methyl-5-(2-oxo-oxazolidin-3-yl)-phenyl]-1,2,3,4-tetrahydro-quinoline-6-carbonyl}-amide] | 0.02 |
| CC1(C)CC(c2cccc(C(N)=O)c2)Nc2ccc(C(=O)NS(C)(=O)=O)cc21 (centres unmarked) [Example 32, 3-(6-Methanesulfonylaminocarbonyl-4,4-dimethyl-1,2,3,4-tetrahydroquinolin-2-yl)-benzamide] | 0.002 |
| CC1(C)CC(c2cccc(C#N)c2)Nc2ccc(C(=O)NS(C)(=O)=O)cc21 (centres unmarked) [Example 33, N-[2-(3-cyano-phenyl)-4,4-dimethyl-1,2,3,4-tetrahydro-quinoline-6-carbonyl]-methanesulfonamide] | 0.08 |
| CC1(C)CC(c2cccc(C(N)=O)c2)Nc2ccc(C(=O)NS(=O)(=O)C3CC3)cc21 (centres unmarked) [Example 34, 3-(6-Cyclopropanesulfonylaminocarbonyl-4,4-dimethyl-1,2,3,4-tetrahydro-quinolin-2-yl)-benzamide] | 0.08 |
| CC1(C)CC(c2cccc(C#N)c2)Nc2ccc(C(=O)NS(=O)(=O)C3CC3)cc21 (centres unmarked) [Example 35, Cyclopropanesulfonic acid [2-(3-cyano-phenyl)-4,4-dimethyl-1,2,3,4-tetrahydro-quinoline-6-carbonyl]-amide] | 0.24 |
| Cc1ccc(N2CCN(c3cncc(C4CC(C)(C)c5cc(C(=O)NS(=O)(=O)C6CC6)ccc5N4)c3)CC2)c(C)c1 (centres unmarked) [Example 50, Cyclopropanesulfonic acid (2-{5-[4-(2,4-dimethyl-phenyl)-piperazin-1-yl]-pyridin-3-yl}-4,4-dimethyl-1,2,3,4-tetrahydro-quinoline-6-carbonyl)-amide] | 0.16 |
| CN1CCN(c2cccc(C3CC(C)(C)c4cc(C(=O)NS(=O)(=O)C5CC5)ccc4N3)c2)CC1 (centres unmarked) [Example 51, Cyclopropanesulfonic acid {4,4-dimethyl-2-[3-(4-methyl-piperazin-1-yl)-phenyl]-1,2,3,4-tetrahydro-quinoline-6-carbonyl}-amide] | 0.18 |
| CC1(C)CC(c2cccc(N3CCCC3)c2)Nc2ccc(C(=O)NS(=O)(=O)C3CC3)cc21 (centres unmarked) [Example 52, Cyclopropanesulfonic acid [4,4-dimethyl-2-(3-pyrrolidin-1-yl-phenyl)-1,2,3,4-tetrahydro-quinoline-6-carbonyl]-amide] | 0.55 |
| CC1(C)CC(c2cncc(N3CCOCC3)c2)Nc2ccc(C(=O)NS(=O)(=O)C3CC3)cc21 (centres unmarked) [Example 54, Cyclopropanesulfonic acid [4,4-dimethyl-2-(5-morpholin-4-yl-pyridin-3-yl)-1,2,3,4-tetrahydro-quinoline-6-carbonyl]-amide] | 0.03 |
| CC1(C)CC(c2cccc(N3CCOCC3)c2)Nc2c(C(=O)NS(C)(=O)=O)cc(F)cc21 (centres unmarked) [Example 56, N-[6-fluoro-4,4-dimethyl-2-(3-morpholin-4-yl-phenyl)-1,2,3,4-tetrahydro-quinoline-8-carbonyl]-methanesulfonamide] | 0.03 |
| CN(C)c1cccc(C2CC(C)(C)c3cc(Cl)cc(C(=O)NS(=O)(=O)C4CC4)c3N2)c1 (centres unmarked) [Example 61, Cyclopropanesulfonic acid [6-chloro-2-(3-dimethylamino-phenyl)-4,4-dimethyl-1,2,3,4-tetrahydro-quinoline-8-carbonyl]-amide] | 0.1 |
| CC1(C)CC(c2cccc(N3CCOC3=O)c2)Nc2c(C(=O)NS(C)(=O)=O)cc(Cl)cc21 (centres unmarked) [Example 64, N-{6-chloro-4,4-dimethyl-2-[3-(2-oxo-oxazolidin-3-yl)-phenyl]-1,2,3,4-tetrahydro-quinoline-8-carbonyl}-methanesulfonamide] | 0.1 |
| Cc1cc(C(=O)NS(=O)(=O)C2CC2)cc2c1NC(c1cccc(N3CCOCC3)c1)CC2(C)C (centres unmarked) [Example 66, Cyclopropanesulfonic acid [4,4,8-trimethyl-2-(3-morpholin-4-yl-phenyl)-1,2,3,4-tetrahydro-quinoline-6-carbonyl]-amide] | 12.8 |
| CN1CCN(c2cccc(C3CC(C)(C)c4cccc(C(=O)NS(C)(=O)=O)c4N3)c2)CC1 (centres unmarked) [Example 67, N-{4,4-dimethyl-2-[3-(4-methyl-piperazin-1-yl)-phenyl]-1,2,3,4-tetrahydro-quinoline-8-carbonyl}-methanesulfonamide] | 0.02 |
| Cc1ccc(N2CCN(c3cccc(C4CC(C)(C)c5cc(F)cc(C(=O)NS(C)(=O)=O)c5N4)c3)CC2)cc1 (centres unmarked) [Example 68, N-{6-fluoro-4,4-dimethyl-2-[3-(4-p-tolyl-piperazin-1-yl)-phenyl]-1,2,3,4-tetrahydro-quinoline-8-carbonyl}-methanesulfonamide] | 0.003 |
| CC1(C)CC(c2cccc(N3CCCC3)c2)Nc2c(C(=O)NS(C)(=O)=O)cc(Cl)cc21 (centres unmarked) [Example 71, N-[6-chloro-4,4-dimethyl-2-(3-pyrrolidin-1-yl-phenyl)-1,2,3,4-tetrahydro-quinoline-8-carbonyl]-methanesulfonamide] | 0.08 |
| CC1(C)CC(c2ccc(F)c(Cl)c2)Nc2ccc(C(=O)NS(=O)(=O)C3CC3)nc21 (centres unmarked) [Example 78, Cyclopropanesulfonic acid [6-(3-chloro-4-fluoro-phenyl)-8,8-dimethyl-5,6,7,8-tetrahydro-[1,5]naphthyridine-2-carbonyl]-amide] | 28.9 |
| CC1(C)CC(c2cccc(N3CCOCC3)c2)Nc2ccc(C(=O)NS(=O)(=O)C3CC3)nc21 (centres unmarked) [Example 79, Cyclopropanesulfonic acid [8,8-dimethyl-6-(3-morpholin-4-yl-phenyl)-5,6,7,8-tetrahydro-[1,5]naphthyridine-2-carbonyl]-amide] | 4.46 |
| CC1(C)CC(c2ccc(F)c(Cl)c2)Nc2ccc(C(=O)NS(C)(=O)=O)nc21 (centres unmarked) [Example 81, N-[6-(3-chloro-4-fluoro-phenyl)-8,8-dimethyl-5,6,7,8-tetrahydro-[1,5]naphthyridine-2-carbonyl]-methanesulfonamide] | 0.43 |
| CC(C)(Nc1cccc(C2CC(C)(C)c3cc(S(=O)(=O)N4CCOCC4)ccc3N2)c1)C(=O)O (centres unmarked) [Example 82, 2-{3-[4,4-Dimethyl-6-(morpholine-4-sulfonyl)-1,2,3,4-tetrahydro-quinolin-2-yl]-phenylamino}-2-methyl-propionic acid] | 0.02 |
| CC1(C)CC(c2cccc(NC3(C(=O)O)CC3)c2)Nc2ccc(S(=O)(=O)N3CCOCC3)cc21 (centres unmarked) [Example 83, 1-{3-[4,4-Dimethyl-6-(morpholine-4-sulfonyl)-1,2,3,4-tetrahydro-quinolin-2-yl]-phenylamino}-cyclopropanecarboxylic acid] | 0.01 |
| CC1(C)CC(c2cccc(NC3(C(=O)O)CC3)c2)Nc2ccc(S(=O)(=O)NC3CCC3)cc21 (centres unmarked) [Example 84, 1-[3-(6-Cyclobutylsulfamoyl-4,4-dimethyl-1,2,3,4-tetrahydro-quinolin-2-yl)-phenylamino]-cyclopropanecarboxylic acid] | 0.2 |
| CC(C)(Nc1cccc(C2CC(C)(C)c3cc(S(=O)(=O)NC4CCC4)ccc3N2)c1)C(=O)O (centres unmarked) [Example 85, 2-[3-(6-Cyclobutylsulfamoyl-4,4-dimethyl-1,2,3,4-tetrahydro-quinolin-2-yl)-phenylamino]-2-methyl-propionic acid] | 0.03 |

— patent publication US8809369B2, “Tetrahydroquinoline derivatives” (Hoffmann-La Roche Inc., priority 2011, dated 2014)
